Laboratory results: US20180147189A1, “ADMINISTRATION REGIMEN FOR THERAPEUTIC AGENTS FOR ATAXIA IN SPINOCEREBELLAR DEGENERATION” (KISSEI PHARMACEUTICAL CO., LTD., priority 2015, published 2018)

What was measured:
animal models = settings: PTL 2; cited from earlier work
[1] = PTL 2; cited from earlier work
[2] = Pharmacokinetic study in humans, single dose on an empty stomach; format: in vivo, human; settings: single dose 0.1-10 mg, healthy adult males
Experimental: Rovatirelin trihydrate (0.1, 0.3, 1, 2.5, 5 or 10 mg) or placebo was administered to 48 healthy adult males (6 individuals per group and 12 on placebo) as a single dose on an empty stomach. Analysis of the pharmacokinetics of intact rovatirelin under this condition indicated linearity of Cmax (maximum plasma concentration), AUC0-∞ (area under the plasma concentration curve vs. time curve from time 0 to infinity), and Ae0-48 (cumulative amount excreted into urine from time 0-48 hours) of rovatirelin in a dosage range from 0.1-10 mg.

ataxia in SCD = settings: NPL 3, cited from earlier work
[3] = tested on: patients with pure cerebellar SCD; test: Clinical trial of pure cerebellar SCD patients (Phase III study); format: in vivo, human
Experimental: Rovatirelin trihydrate at a dose of 1.6 or 2.4 mg or placebo was orally administered to patients with pure cerebellar SCD (SCA6, SCA31 or cortical cerebellar atrophy (CCA)) with ataxia once daily after breakfast for 28 weeks (double-blind; 124 patients in the 1.6 mg group, 122 patients in the 2.4 mg group, and 123 patients in the placebo group).
To appropriately assess the efficacy of rovatirelin trihydrate on ataxia, this study was performed on pure cerebellar SCD patients with a SARA gait score between 2 and 6 and a SARA total score of ≥6.
The same items as those listed in Example 3 were used as efficacy and safety endpoints. SCD is a disease that automatically becomes worse; therefore it is important in the treatment to retard the deterioration. Accordingly, patients with a […] in their SARA score compared with the time in week 0 were defined as deteriorated patients, and deterioration rates (i.e., the number of deteriorated patients/total number of patients) in the SARA total score and SARA scores for each item were calculated.

[4] = tested on: pure cerebellar SCD patients; test: Long-term extension study of pure cerebellar SCD patients; format: in vivo, human; settings: 2.4 mg once daily, at 52 weeks
Experimental: For patients who completed the phase III study (Example 4), rovatirelin trihydrate was administered at 1.6 or 2.4 mg once daily for 52 weeks (open-label parallel-group comparative study).
The same items as those listed in Example 4 were used as efficacy and safety endpoints, and deterioration rates (i.e., the number of deteriorated patients/total number of patients) in the SARA total score and SARA scores for each items were calculated in a similar manner.

SCD patients [5] = test: Study of switch from conventional drugs to rovatirelin in SCD patients; format: in vivo, human; settings: switch group from taltirelin, 24 weeks, P<0.01
Experimental: To the patients were orally administered rovatirelin trihydrate at 1.6 or 2.4 mg once daily after breakfast for 24 weeks (randomized, open-label parallel-group comparative study).
A 4-week pre-observation period was set prior to the start of the treatment period. For patients who received a conventional SCD agent taltirelin or protirelin agent (TRH agent) before the pre-observation period, the medication was continued until the end of the pre-observation period without changing its dosage and administration.
The same items as those listed in Example 4 were used as efficacy and safety endpoints.

SCD patients [6] = test: Clinical trial of SCD patients (Phase II study); format: in vivo, human; settings: for amount of change in the SARA total score: 24 weeks, pure cerebellar SCD patients, mean
Experimental: Rovatirelin trihydrate (0.4, 0.8, 1.6 or 3.2 mg) or placebo was orally administered to 225 SCD patients once daily after breakfast for 24 weeks (double-blind).
The efficacy endpoint was the amount of change in the SARA total score calculated by, as an example, the SARA total score at the final assessment in the treatment period (the final observed value in the treatment period) minus that at the end of the pre-observation period as an example. The safety endpoints were, as an example, the occurrence of adverse events and side effects, physiological examinations (e.g., blood pressure and pulses), and endocrinologic examinations (e.g., FT3 and FT4).
It is noted that the SARA total score was calculated by a sum of the SARA scores for each item ((i.e., gait (score 0-8), stance (score 0-6), sitting (score 0-4), speech disturbance (score 0-6), finger chase (score 0-4), nose-finger test (score 0-4), fast alternating hand movements (score 0-4), and heel-shin slide (score 0-4) (the score 0 is normal for all items)).

[7] = Repeated dose study in healthy adult males; format: in vivo, human; settings: for transition of FT3 value (serum concentration, mean) / transition of FT4 values (serum concentration, mean): oral, 9 days
Experimental: To 50 healthy adult males (8 individuals per group and 10 on placebo), rovatirelin trihydrate (0.25, 0.5 or 1.0 mg) or placebo was orally administered once daily or rovatirelin trihydrate (0.25 or 0.5 mg) or placebo was orally administered twice daily after breakfast and after dinner, for 9 consecutive days.
Serum concentrations (mean) of FT3, FT4, TSH, and prolactin (PRL), and adverse events and the like were evaluated.

[8] = 2.4 mg group, elderly aged ≥65 years
[9] = 0.5 mg once daily (0.5 mg/qd) compared with 0.25 mg twice daily
[10] = 1 mg once daily (1 mg/qd) compared with 0.5 mg twice daily

## C[C@@H]1OC(=O)N[C@@H]1C(=O)N[C@@H](Cc1cscn1)C(=O)N1CCC[C@H]1C [rovatirelin, (4S,5S)-5-methyl-N-{(2S)-1-[(2R)-2-methylpyrrolidin-1-yl]-1-oxo-3-(1,3-thiazol-4-yl)propan-2-yl}-2-oxo-1,3-oxazolidine-4-carboxamide]
Animal models
  effects in improving ataxia relative to taltirelin: at least 30 times
[1]
  bioavailability (BA): high
[2]
  dose proportionality of AUC0-∞: linearity
  dose proportionality of Ae0-48 (cumulative amount excreted into urine 0-48 hours): linearity
  dose proportionality of Cmax (maximum plasma concentration): linearity

## CN1C(=O)C[C@@H](C(=O)N[C@@H](Cc2cnc[nH]2)C(=O)N2CCC[C@H]2C(N)=O)NC1=O.O.O.O.O [Taltirelin hydrate]
Ataxia in SCD; after 28 weeks, ataxia in SCD
  total improvement level (subjective assessment of a physician) versus placebo: significant difference
Ataxia in SCD; phase III double-blind comparative study
  individual symptoms (symptom of ataxia): no significant improvement was observed

## C[C@@H]1OC(=O)N[C@@H]1C(=O)N[C@@H](Cc1cscn1)C(=O)N1CCC[C@H]1C [rovatirelin trihydrate]
[3]; 1.6 mg and 2.4 mg groups, 4 weeks after the start of administration, no further increase subsequently
  FT3 and FT4 concentrations versus normal range: reached the upper limit of the normal range
[3]; 1.6 mg group
  SARA gait and stance scores compared with the placebo group: no improvement was observed
  SARA total score compared with the placebo group: no improvement was observed
[3]; 1.6 mg group (placebo 4.9%)
  discontinuation rate: 16.0%
[3]; 1.6 mg once daily, 28 weeks, compared with pre-dose score
  amount of change in the SARA total score: −0.75
[3]; 2.4 mg group (placebo 4.9%)
  discontinuation rate: 19.8%
[3]; 2.4 mg group (placebo 30.9%)
  deterioration rate of the SARA total score: 23.8%
[3]; [8]
  amount of change in the SARA gait score: −0.19
  amount of change in the SARA stance score: −0.54
  amount of change in the SARA total score: −1.39
[3]; 2.4 mg once daily, 28 weeks, compared with pre-dose score
  amount of change in the SARA total score: −1.22
[4]
  deterioration rate for items (gait): 9.9%
  deterioration rate of the SARA total score: 21.0%
[4]; 81 patients who completed
  amount of change in the SARA total score: −1.41
SCD patients [5]; 1.6 mg once daily
  amount of change in the SARA total score at an endpoint: −1.34
SCD patients [5]; 2.4 mg once daily
  amount of change in the SARA total score at an endpoint: −1.35
SCD patients [6]; 0.4 mg once daily
  amount of change in the SARA total score: −1.09 score
SCD patients [6]; 0.8 mg once daily
  amount of change in the SARA total score: −1.27 score
SCD patients [6]; 1.6 mg group (placebo 15.6%)
  discontinuation rate: 17.8%
SCD patients [6]; 1.6 mg once daily
  amount of change in the SARA total score: −1.58 score
SCD patients [6]; 3.2 mg group (placebo 15.6%)
  discontinuation rate: 28.9%
SCD patients [6]; 3.2 mg once daily
  FT3 and FT4 concentrations versus upper reference limits: slightly above the upper reference limits
  amount of change in the SARA total score: −1.65 score
SCD patients [6]; 3.2 mg once daily, P=0.002
  side effect rate compared with placebo (Fisher's exact test): significantly differed
[7]; [9]
  transition of FT3 value (serum concentration, mean): proceeded at lower levels as a whole
  transition of FT4 values (serum concentration, mean): comparable for both groups or the transition for the 0.5 mg/qd group proceeded at slightly lower levels
[7]; 0.5 mg twice daily, Day 5 and Day 9, reference limits 0.9 and 1.7 ng/dL
  FT4 concentrations versus reference limit: above the reference limit
[7]; [10]
  transition of FT3 value (serum concentration, mean): proceeded at lower levels as a whole
  transition of FT4 values (serum concentration, mean): proceeded at lower levels as a whole
